Laboratory results reported in patent US5292733A, “Cephalosporin compounds” (Lucky Limited, priority 1991, dated 1994).
≈ marks a conversion by molar mass, not a printed value.

How the values were obtained:
Assay in all cases: Antibacterial activity MIC, two-fold agar dilution
Format in all cases: cell-based
[1] = system: Acinetobacter calcoaceticus ATCC 15473; conditions: ATCC15473; Acinetobacter calcoaceticus ATCC 15473; Muller-Hinton agar, 37° C., 20 hours; read-out: Antibacterial Activity MIC
Protocol: (§1) These MIC values were taken by employing a two-fold dilution method: that is, two-fold serial dilutions of each of the test compounds were made and dispersed in a Muller-Hinton agar medium; 2 μl of the standard test strain which had the 10^7 CFU(Colony Forming Unit) per ml was inoculated on the medium; and these were incubated at 37° C. for 20 hours. The results of the MIC tests are shown Table 1.

[2] = system: Bacillus cereus ATCC 11778; conditions: ATCC11778; Bacillus cereus ATCC 11778; Muller-Hinton agar, 37° C., 20 hours; read-out: Antibacterial Activity MIC
Protocol: as §1

[3] = system: Bacillus megaterium ATCC 9885; conditions: Priestia megaterium, ATCC9885; Bacillus megaterium ATCC 9885; Muller-Hinton agar, 37° C., 20 hours; read-out: Antibacterial Activity MIC
Protocol: as §1

[4] = system: Citrobacter freundii ATCC 8090; conditions: ATCC8090; Citrobacter freundii ATCC 8090; Muller-Hinton agar, 37° C., 20 hours; read-out: Antibacterial Activity MIC
Protocol: as §1

[5] = system: Enterobacter aerogenes ATCC 29751; conditions: Klebsiella aerogenes, ATCC29751; Enterobacter aerogenes ATCC 29751; Muller-Hinton agar, 37° C., 20 hours; read-out: Antibacterial Activity MIC
Protocol: as §1

[6] = system: Enterobacter cloacae ATCC 27508; conditions: ATCC27508; Enterobacter cloacae ATCC 27508; Muller-Hinton agar, 37° C., 20 hours; read-out: Antibacterial Activity MIC
Protocol: as §1

[7] = system: Escherichia coli ATCC 10536; conditions: ATCC10536, Muller-Hinton agar, 37° C., 20 hours
Protocol: as §1

[8] = system: Escherichia coli ATCC 25922; conditions: ATCC25922, Muller-Hinton agar, 37° C., 20 hours
Protocol: as §1

[9] = system: Klebsiella pneumoniae ATCC 10031; conditions: ATCC10031; Klebsiella pneumoniae ATCC 10031; Muller-Hinton agar, 37° C., 20 hours; read-out: Antibacterial Activity MIC
Protocol: as §1

[10] = system: Micrococcus luteus ATCC 9341; conditions: ATCC9341; Micrococcus luteus ATCC 9341; Muller-Hinton agar, 37° C., 20 hours; read-out: Antibacterial Activity MIC
Protocol: as §1

[11] = system: Morganella morganii ATCC 8076h; conditions: ATCC8076H, Muller-Hinton agar, 37° C., 20 hours
Protocol: as §1

[12] = system: Proteus mirabilis ATCC 25933; conditions: ATCC25933; Proteus mirabilis ATCC 25933; Muller-Hinton agar, 37° C., 20 hours; read-out: Antibacterial Activity MIC
Protocol: as §1

[13] = system: Proteus vulgaris ATCC 6059; conditions: ATCC6059; Proteus vulgaris ATCC 6059; Muller-Hinton agar, 37° C., 20 hours; read-out: Antibacterial Activity MIC
Protocol: as §1

[14] = system: Providencia rettgeri ATCC 9250; conditions: ATCC9250, Muller-Hinton agar, 37° C., 20 hours
Protocol: as §1

[15] = system: Pseudomonas aeruginosa ATCC 10145; conditions: ATCC10145; Pseudomonas aeruginosa ATCC 10145; Muller-Hinton agar, 37° C., 20 hours; read-out: Antibacterial Activity MIC
Protocol: as §1

[16] = system: Pseudomonas aeruginosa ATCC 25619; conditions: ATCC25619; Pseudomonas aeruginosa ATCC 25619; Muller-Hinton agar, 37° C., 20 hours; read-out: Antibacterial Activity MIC
Protocol: as §1

[17] = system: Pseudomonas aeruginosa ATCC 27853; conditions: ATCC27853; Pseudomonas aeruginosa ATCC 27853; Muller-Hinton agar, 37° C., 20 hours; read-out: Antibacterial Activity MIC
Protocol: as §1

[18] = system: Salmonella typhimurium ATCC 14028; conditions: Salmonella enterica; Salmonella typhimurium ATCC 14028; Muller-Hinton agar, 37° C., 20 hours; read-out: Antibacterial Activity MIC
Protocol: as §1

[19] = system: Serratia marcescens ATCC 27117; conditions: ATCC27117; Serratia marcescens ATCC 27117; Muller-Hinton agar, 37° C., 20 hours; read-out: Antibacterial Activity MIC
Protocol: as §1

[20] = system: Shigella flexneri ATCC 11836; conditions: ATCC11836, Muller-Hinton agar, 37° C., 20 hours
Protocol: as §1

[21] = system: Shigella sonnei ATCC 11060; conditions: ATCC11060, Muller-Hinton agar, 37° C., 20 hours
Protocol: as §1

[22] = system: Staphylococcus aureus ATCC 10537; conditions: ATCC10537; Staphylococcus aureus ATCC 10537; Muller-Hinton agar, 37° C., 20 hours; read-out: Antibacterial Activity MIC
Protocol: as §1

[23] = system: Staphylococcus aureus ATCC 6538p; conditions: ATCC6538P; Staphylococcus aureus ATCC 6538p; Muller-Hinton agar, 37° C., 20 hours; read-out: Antibacterial Activity MIC
Protocol: as §1

[24] = system: Staphylococcus epidermidis ATCC 12228; conditions: ATCC12228; Staphylococcus epidermidis ATCC 12228; Muller-Hinton agar, 37° C., 20 hours; read-out: Antibacterial Activity MIC
Protocol: as §1

[25] = system: Streptococcus faecalis ATCC 29212; conditions: Enterococcus faecalis, ATCC29212; Streptococcus faecalis ATCC 29212; Muller-Hinton agar, 37° C., 20 hours; read-out: Antibacterial Activity MIC
Protocol: as §1

With CCO/N=C(\C(=O)N[C@@H]1C(=O)N2C(C(=O)[O-])=C(CSc3cc(N)[n+](CC)c(N)n3)CS[C@H]12)c1nsc(N)n1 [Compound I-11, (6R,7R)-7-[(Z)-2-(5-amino-1,2,4-thiadiazol-3-yl)-2-(ethoxyimino)acetamido]-3-(2,6-diamino-1-ethylpyrimidinium-4-yl)thiomethyl-3-cephem-4-carboxylate] the MIC [1] was 4 µg/mL (≈ 6.89 µM), the MIC [2] was 128 µg/mL (≈ 220 µM) and the MIC [3] was 0.13 µg/mL (≈ 0.224 µM). The MIC [4] was 0.063 µg/mL (≈ 0.108 µM), the MIC [5] was 0.13 µg/mL (≈ 0.224 µM) and the MIC [6] was at most 0.008 µg/mL. For the same molecule, the MIC [7] was 0.13 µg/mL (≈ 0.224 µM), the MIC [8] was 0.25 µg/mL (≈ 0.431 µM) and the MIC [9] was at most 0.008 µg/mL. It also gave an MIC [10] of 0.016 µg/mL (≈ 0.0276 µM), an MIC [11] of 0.016 µg/mL (≈ 0.0276 µM) and an MIC [12] of 0.5 µg/mL (≈ 0.861 µM). The MIC [13] was 0.5 µg/mL (≈ 0.861 µM), the MIC [14] was at most 0.008 µg/mL and the MIC [15] was 2 µg/mL (≈ 3.44 µM). It also gave an MIC [16] of 0.5 µg/mL (≈ 0.861 µM), an MIC [17] of 1 µg/mL (≈ 1.72 µM) and an MIC [18] of 0.063 µg/mL (≈ 0.108 µM). For the same molecule, the MIC [19] was 0.13 µg/mL (≈ 0.224 µM), the MIC [20] was 0.031 µg/mL (≈ 0.0534 µM) and the MIC [21] was 0.25 µg/mL (≈ 0.431 µM). The MIC [22] was 0.5 µg/mL (≈ 0.861 µM), the MIC [23] was 0.5 µg/mL (≈ 0.861 µM) and the MIC [24] was 0.25 µg/mL (≈ 0.431 µM). It also gave an MIC [25] of 8 µg/mL (≈ 13.8 µM).

C[n+]1c(N)cc(SCC2=C(C(=O)[O-])N3C(=O)[C@@H](NC(=O)/C(=N\OC(C)(C)C(=O)O)c4csc(N)n4)[C@H]3SC2)nc1N [Compound I-12, (6R,7R)-7-[(Z)-2-(2-aminothiazol-4-yl)-2-(carboxyprop-2-oxyimino)acetamido]-3-(2,6-diamino-1-methylpyrimidinium-4-yl)thiomethyl-3-cephem-4-carboxylate] was tested, and the MIC [1] was 8 µg/mL (≈ 12.8 µM), the MIC [2] was 128 µg/mL (≈ 205 µM) and the MIC [3] was 0.25 µg/mL (≈ 0.401 µM). For the same molecule, the MIC [4] was 0.13 µg/mL (≈ 0.208 µM), the MIC [5] was 2 µg/mL (≈ 3.21 µM) and the MIC [6] was 0.031 µg/mL (≈ 0.0497 µM). It also gave an MIC [7] of 0.25 µg/mL (≈ 0.401 µM), an MIC [8] of 0.25 µg/mL (≈ 0.401 µM) and an MIC [9] of 0.063 µg/mL (≈ 0.101 µM). The MIC [10] was 0.5 µg/mL (≈ 0.802 µM), the MIC [11] was at most 0.008 µg/mL and the MIC [12] was 0.13 µg/mL (≈ 0.208 µM). It also gave an MIC [13] of 0.25 µg/mL (≈ 0.401 µM), an MIC [14] of at most 0.008 µg/mL and an MIC [15] of 2 µg/mL (≈ 3.21 µM). For the same molecule, the MIC [16] was 1 µg/mL (≈ 1.6 µM), the MIC [17] was 1 µg/mL (≈ 1.6 µM) and the MIC [18] was 0.25 µg/mL (≈ 0.401 µM). The MIC [19] was 0.5 µg/mL (≈ 0.802 µM), the MIC [20] was 0.063 µg/mL (≈ 0.101 µM) and the MIC [21] was 0.25 µg/mL (≈ 0.401 µM). It also gave an MIC [22] of 4 µg/mL (≈ 6.41 µM), an MIC [23] of 8 µg/mL (≈ 12.8 µM) and an MIC [24] of 4 µg/mL (≈ 6.41 µM). It also gave an MIC [25] of over 128 µg/mL.

CC[n+]1c(N)cc(SCC2=C(C(=O)[O-])N3C(=O)[C@@H](NC(=O)/C(=N\OC(C)(C)C(=O)O)c4csc(N)n4)[C@H]3SC2)nc1N [Compound I-13, (6R,7R)-7-[(Z)-2-(2-aminothiazol-4-yl)-2-(carboxyprop-2-oxyimino)acetamido]-3-(2,6-diamino-1-ethylpyrimidinium-4-yl)thiomethyl-3-cephem-4-carboxylate] was tested, and the MIC [1] was 8 µg/mL (≈ 12.5 µM), the MIC [2] was 128 µg/mL (≈ 201 µM) and the MIC [3] was 0.25 µg/mL (≈ 0.392 µM). For the same molecule, the MIC [4] was 0.13 µg/mL (≈ 0.204 µM), the MIC [5] was 2 µg/mL (≈ 3.14 µM) and the MIC [6] was 0.031 µg/mL (≈ 0.0486 µM). The MIC [7] was 0.13 µg/mL (≈ 0.204 µM), the MIC [8] was 0.13 µg/mL (≈ 0.204 µM) and the MIC [9] was 0.063 µg/mL (≈ 0.0988 µM). For the same molecule, the MIC [10] was 0.5 µg/mL (≈ 0.784 µM), the MIC [11] was at most 0.008 µg/mL and the MIC [12] was 0.13 µg/mL (≈ 0.204 µM). The MIC [13] was 0.25 µg/mL (≈ 0.392 µM), the MIC [14] was at most 0.008 µg/mL and the MIC [15] was 2 µg/mL (≈ 3.14 µM). For the same molecule, the MIC [16] was 1 µg/mL (≈ 1.57 µM), the MIC [17] was 1 µg/mL (≈ 1.57 µM) and the MIC [18] was 0.25 µg/mL (≈ 0.392 µM). The MIC [19] was 0.5 µg/mL (≈ 0.784 µM), the MIC [20] was 0.063 µg/mL (≈ 0.0988 µM) and the MIC [21] was 0.25 µg/mL (≈ 0.392 µM). It also gave an MIC [22] of 4 µg/mL (≈ 6.27 µM), an MIC [23] of 8 µg/mL (≈ 12.5 µM) and an MIC [24] of 2 µg/mL (≈ 3.14 µM). For the same molecule, the MIC [25] was over 128 µg/mL.
